Consider one molecule from patent US20260117173A1, “METHOD FOR MESENCHYMAL PHENOTYPE REVERSION IN PRIMARY HUMAN CORNEAL ENDOTHELIAL CELLS” (UNIVERSITÀ DEGLI STUDI DI MODENA E REGGIO EMILIA, priority 2022, published 2026).

Assay [1] relates to primary human corneal endothelial cells (HCEnCs). The assay is described as follows: Phase-contrast morphology of primary HCEnCs cultures treated with CHIR. The class given is cell-based. How it is done:
Human corneas tissues (obtained after informed consent to the eye bank and the use was approved by the ethical committee) were preserved in media for tissue preservation as for example Eusol, OptiSOL or others and used within approximately 15 days from death; a list of detail for some corneas used and relative experiments is shown in Table 1. HCEnCs were isolated through Descemet's stripping and digestion with Collagenase A (Roche) for 1-16 h at 30-39° C. After 5-10 minutes in Trypsin or other proteolytic enzymes at 37° C., HCEnCs were pelleted at 1,200 rpm for 3 min and plated in FNC Coating mix treated wells.
(§1) HCEnCs were cultured between 31 and 39° C. in 4-10% CO2, changing the growth medium every other day. The growth medium can be OptiMEM-I, MEM, F12, Human Endothelial SFM, 2-10% HyClone fetal bovine serum (FBS), 2-10 ng/ml epidermal growth factor (EGF), 5-50 μg/mL ascorbic acid, 40-300 mg/L calcium chloride, 0.01-0.2% chondroitin sulphate, and penicillin/streptomycin. Upon confluency, HCEnCs were rinsed in DPBS and passaged at a ratio of 1:2 or 1:3 with Trypsin or other proteolytic enzymes for 10-30 min at 31-39° C. in 4-10% CO2. Sub-confluent cultures were harvested approximately 1 day after plating.
(§2) Before or whenever primary HCEnCs encountered a morphological variation, the GSK inhibitor CHIR99021 (also defined as 6-[[2-[[4-(2,4-Dichlorophenyl)-5-(5-methyl-1H-imidazol-2-yl)-2-pyrimidinyl]amino]ethyl]amino]-3-pyridinecarbonitrile) was prepared and added to the culture media at a concentration range of 0.1-10 μM. Multiple solvents and methods have been used to dissolve CHIR stock solution. Ultrasonic were applied for CHIR dilutions in sodium carboxymethyl cellulose (CMC-Na) in saline water and 20% Sulfobutylether-β-Cyclodextrin (SBE-β-CD), adjusted to pH 3-6, with 1 N acetic acid. CHIR can be also diluted in dimethyl sulfoxide (DMSO) at 70-100% (v/v), with a solution composed of 10% DMSO 40% PEG300 5% Tween-80 in saline water or composed of 10% DMSO and 20% SBE-β-CD in saline water. Once obtained a clear solution, the stock solution was aliquoted and stored at-20/−80° C. until use.

The test system is the same in assay [2]. As to the kind of experiment: Immunofluorescence of ZO-1 and α-SMA markers in primary HCEnCs. Type of assay: cell-based. How it is done: as §1, §2
(§3) Immunofluorescence staining was performed on primary cultured HCEnCs after fixation in 3% PFA 15 min at room temperature (RT). Triton X-100 used at 1% for 10 min at RT allowed cell permeabilization and a solution of bovine serum albumin (BSA) 2%, FBS 2%, Triton X-100 at 0.01% in PBS was used for 30 min at 37° C. to block the non-specific binding sites. Primary and secondary antibodies were incubated for 1 h at 37° C. while nuclei were counterstained with DAPI at RT for 5 minutes before mounting the glass coverslips using amounting medium such as DAKO. Primary antibodies used herein are listed in Table 2 while secondary antibodies used are: Alexa Fluor 488 anti-rabbit, 1:2,000, and Alexa Fluor 568 anti-mouse, 1:1,000 (Thermo Fisher Scientific). Images were obtained with a confocal microscope (LSM900 Airyscan—Carl Zeiss).

Assay [3] shares this test system. The assay is described as follows: Cell cycle analysis by FACS (propidium iodide) of sub-confluent HCEnCs. The following applies: sub-confluent HCEnCs P5-P6-P8, CHIR 0.1-9 μM vs untreated. The class given is cell-based. How it is done:
The cell cycle was studied by staining sub-confluent cultures of […] with Propidium Iodide (PI; Sigma-Aldrich). […] from cell culture were washed with DPBS and incubated for 1 h at 4° C. in the dark with 250 μL of a PBS solution composed by PI 50 μg/mL, Triton X-100 (Bio-Rad, USA) at 0.1%. Cells were then analysed using BD FACSCanto II (BD BIOSCIENCES; San Jose, CA USA). For each sample, 20,000 events were considered for the analysis to ensure statistical relevance and results were analysed with a ModFit 3.0 software.
In general terms: A flow cytometer gives signals particle by particle.

For assay [4] the test system is unchanged. As to the kind of experiment: HCEnCs count upon detachment at confluency for progressive passages. The following applies: CHIR 0.1-9 μM vs relative untreated control. The class given is cell-based. How it is done:
[…] were cultured between 31 and 39° C. in 4-10% CO2, changing the growth medium every other day. The growth medium can be OptiMEM-I, MEM, F12, Human Endothelial SFM, 2-10% HyClone fetal bovine serum (FBS), 2-10 ng/ml epidermal growth factor (EGF), 5-50 μg/mL ascorbic acid, 40-300 mg/L calcium chloride, 0.01-0.2% chondroitin sulphate, and penicillin/streptomycin. Upon confluency, […] were rinsed in DPBS and passaged at a ratio of 1:2 or 1:3 with Trypsin or other proteolytic enzymes for 10-30 min at 31-39° C. in 4-10% CO2. Sub-confluent cultures were harvested approximately 1 day after plating.

Assay [5] has the same test system. The assay is described as follows: Immunofluorescence of ki67 in sub-confluent HCEnCs. The class given is cell-based. How it is done: as §3, with “HCEnCs” left out, “Airyscan-Carl” for “Airyscan—Carl”
Assay [6] relates to corneal endothelial derived cell line, B4G12. The following applies: B4G12 cell line (Wang et al., 2022); cited from earlier work.
Setting [7] is: P1, CHIR at 0.1-9 μM, vs untreated (ctr).
The mark [8] stands for this setting: P1, CHIR at a concentration >10 μM.

For `Cc1cnc(-c2cnc(NCCNc3ccc(C#N)cn3)nc2-c2ccc(Cl)cc2Cl)[nH]1` [CHIR, 6-[[2-[[4-(2,4-Dichlorophenyl)-5-(5-methyl-1H-imidazol-2-yl)-2-pyrimidinyl]amino]ethyl]amino]-3-pyridinecarbonitrile], the “reversion of elongated morphology” value in assay [1] (CHIR 0.1-9 μM added at a later passage, P6 confluence) is on record as “able to reverse the elongated morphology”. For the same molecule, in assay [1] (CHIR 0.1-9 μM applied to HCEnCs already elongated in culture (P3)), the “reversion of cell phenotype / morphology” value is reported as “restoring a polygonal morphology”. The “reversion of elongated phenotype” value in assay [1] (CHIR 0.1-9 μM, progressive passages, at least up to P8) is reported as “reversing the elongated phenotype”. Also, the HCEnCs morphology result in assay [1] (P1, CHIR at 0.1-9 μM, vs untreated HCEnCs (ctr)) is given as “restored the polygonal morphology”; in assay [1] (P1, CHIR at concentrations >10 μM, vs untreated cells), “exacerbated elongated morphology”; in assay [1] (P3, CHIR 0.1-9 μM vs untreated (ctr)) it was “untreated cells (ctr) appeared more elongated than CHIR treated HCEnCs”. Moreover, in assay [2] (P1, CHIR 0.1-9 μM, untreated approx. 40%), the “percentage of α-SMA expressing cells” value is listed as around 17%. Also, the ZO-1 expression entry is reported as “restored sealed ZO-1 pattern of expression” in assay [2] (setting [7]); “disappearance of ZO-1 expression” in assay [2] (setting [8]); “restores ZO-1 pattern of tight junctions” in assay [2] (P3, CHIR 0.1-9 μM). For the same molecule, the α-SMA expression entry in assay [2] (setting [7]) is on record as “reduced levels of α-SMA”; in assay [2] (setting [8]) it was “highly expressed in every cell”; in assay [2] (P3, CHIR 0.1-9 μM), “drastically reduces expression of α-SMA”. Also, the “endothelial to mesenchymal transition (EnMT)” value in assay [2] (setting [8]) is “accelerated the process of endothelial to mesenchymal transition”. Also, the “percentage of cells at G2/M” value in assay [3] was “reduced the percentage of cells at G2/M”. Also, the “percentage of cells in G0/G1 phase of cell cycle” value in assay [3] is given as “enhanced the percentage of cells in G0/G1 phase”. Further, in assay [4], the “number of HCEnCs at confluency for each passage” value is listed as “constantly lower”. For the same molecule, the cell proliferation rate entry in assay [5] (primary HCEnCs, evaluated with different assays (FACS, count, ki67)) is on record as “does not enhance cell proliferation rate”. Besides, the “ki67 protein expressing cells” value in assay [5] (sub-confluent HCEnCs P5, Strain 3, CHIR 0.1-9 μM vs untreated) is listed as “equal”; in assay [5] (sub-confluent HCEnCs P5, Strain 4, p<0.05, CHIR 0.1-9 μM vs untreated), “significant reduction”. Further, the cell proliferation entry in assay [6] was “concomitant enhancement in cell proliferation”. For the same molecule, the mesenchymal conversion entry in assay [6] is “prevent mesenchymal conversion (but not to reverse it)”.
